Activity calls are given as the source filed them. No cut-off for these calls is given here. Peptide text beside a SMILES is read from it.
What was measured:
Salmonella typhimurium [1] = test: Antibacterial activity against Salmonella typhimurium DT104 in the presence of CaCl2 by MH broth based assay; format: functional, Salmonella enterica subsp. enterica serovar Typhimurium; conditions: Salmonella enterica
Salmonella typhimurium [2] = test: Antibacterial activity against Salmonella typhimurium DT104 in the presence of FeCl3 by MH broth based assay; format: functional, Salmonella enterica subsp. enterica serovar Typhimurium; conditions: Salmonella enterica
Salmonella typhimurium [3] = test: Antibacterial activity against Salmonella typhimurium DT104 assessed as reduction in TNF-alpha production in serum at 20 mg/kg, ip administered for 3 days and measured on day 7; format: functional, organism-based; conditions: Salmonella enterica subsp. enterica serovar Typhimurium, time 7.0 day
Salmonella typhimurium [4] = test: Antibacterial activity against Salmonella typhimurium DT104 assessed as increase in claudin mRNA level in colon at 20 mg/kg, ip administered for 3 days and measured on day 7 by RT-PCR analysis; format: functional, organism-based; conditions: Salmonella enterica subsp. enterica serovar Typhimurium, time 7.0 day
Salmonella typhimurium [5] = test: Antibacterial activity against Salmonella typhimurium DT104 infected in ICR mouse model at 2 mg/kg, ip administered for 3 days and measured on day 7; format: functional, organism-based; conditions: Salmonella enterica subsp. enterica serovar Typhimurium, time 7.0 day

C[C@@H](O)[C@H](NC(=O)[C@H](CS)NC(=O)[C@H](CCCCN)NC(=O)[C@H](Cc1c[nH]c2ccccc12)NC(=O)[C@H](CCCCN)NC(=O)[C@@H](N)Cc1c[nH]c2ccccc12)C(=O)N[C@@H](CCCCN)C(=O)N[C@@H](CO)C(=O)NCC(=O)N[C@@H](CS)C(=O)N[C@@H](CCCCN)C(=O)N[C@@H](Cc1c[nH]c2ccccc12)C(=O)N[C@@H](CCCCN)C(=O)N[C@@H](Cc1c[nH]c2ccccc12)C(N)=O (H-WKWKCTKSGCKWKW-NH2)
MIC (Salmonella typhimurium [1]): 8 µg/mL | MIC (Salmonella typhimurium [2]): 8 µg/mL | Activity (Salmonella typhimurium [3]): Active | Activity (Salmonella typhimurium [4]): Active | Activity (Salmonella typhimurium [5]): Active

— ChEMBL document CHEMBL5352429, “Designed symmetrical β-hairpin peptides for treating multidrug-resistant salmonella typhimurium infections” (Eur J Med Chem, 2022)
